From US3965151A, “Intermediates for tricyclic benzodiazepines” (Hoffmann-La Roche Inc., priority 1975, dated 1976) come the findings set out here.

Common to all, as to type: in vivo
Test [1] concerns mice. Briefly: Foot Shock (blocking of foot shock-induced fighting in pairs of mice). Conditions: oral, 1 hour prior to second shocking, three out of three pairs blocked from fighting. As for the experimental part:
This test is a screen for compounds having muscle relaxant and/or anti-anxiety (tranquilizer) activity. A pair of mice is confined under a 1 liter beaker placed on a grid which presents shock to the feet. At least five fighting episodes are elicited in a 2-minute period. Pairs of mice are marked and pretreated by oral dosage 1 hour prior to a second shocking. Logarithmic-dose intervals are utilized up to a maximum of 100 mg/kgm. At the 100 per cent blocking dose, three out of three pairs must be blocked from fighting.

The subject of test [2] is mice. Briefly: Inclined Screen (paralyzing effects, muscle relaxant and/or sedative activity). Conditions: Mus musculus, 4 h; male mice, at least four hours observation; dose expected to cause 50 per cent of mice to slide off the screen; read-out: Inclined Screen PD50. As for the experimental part: The test is useful in determining muscle relaxant and/or sedative activity. Groups of six male mice are given the test drug (maximum dose of 500 mg/kg.) and then are left on the inclined screen at least four hours for observation of paralyzing effects severe enough to cause them to slide off the screen. If activity is observed, additional doses are tested until at least two are reached at which some, but not all the animals slide off the screen. Doses at which mice fall off the screen due to toxicity or excitation are not included in the calculation of PD50. The PD50 is determined from a graph on which dose is plotted against per cent of mice paralyzed. This PD50 value is defined as the dose in mg/kg. which can be expected to cause 50 per cent of mice to slide off the screen.

In the next test the test system is Cats. In words: Unanesthetized Cat (minimum symptoms, usually ataxia; muscle relaxant activity). Conditions: Felis catus, oral, read-out: Unanesthetized Cat MED. As for the experimental part: Cats are treated orally and observed for minimum symptoms--usually ataxia. One cat is used at a dose of 50 mgm/kgm. If activity is present, up to three cats/dose are used. Results are given as minimum effective dose. This test is useful in determining muscle relaxant activity.

Test [3] has as its system mice. Briefly: Antimetrazol (protection from metrazol-induced convulsive seizures). Conditions: Mus musculus, oral, 1 hour before metrazol ~125 mg/kg s.c., 50 per cent of animals protected from convulsive seizures, read-out: Antimetrazole ED50. As for the experimental part: This test determines anticonvulsant and/or sedative activity of compounds in mice. The test compound is administered orally to groups of four mice at various dose levels. One hour later, metrazol (at a dose level previously determined to be sufficient to induce convulsive seizures in all test animals ~125 mg/kg.) is administered subcutaneously and the animals are observed for protection from convulsive seizures. Results are recorded as the number of animals protected against convulsions. The dose at which 50 per cent of the animals are protected from convulsive seizures is expressed as the ED50.

As for `O=C1CN2CCOC2(c2ccccc2F)c2cc(Cl)ccc2N1CCO` (stereo not shown) [Compound B, 10-Chloro-11b-(2-fluorophenyl)-7-(2-hydroxyethyl)-2,3,5,11b-tetrahydrooxazolo[3,2-d][1,4]benzodiazepin-6(7H)-one], the “Footshock 100% Blocking Dose Level” value in the test on mice [1] is listed as 4 mg. Moreover, the ED50 amounted to 15 mg/kg in the test with mice [2] and 2.03 mg/kg in the test on mice [3]. Further, the minimal effective dose in the test with Cats was found to be 5 mg/kg.
In the case of `O=C1CN2CCOC2(c2ccccc2)c2cc(Cl)ccc2N1CCO` (stereo not shown) [Compound A, 10-chloro-7-(2-hydroxyethyl)-2,3,5,11b-tetrahydro-11b-phenyloxazolo[3,2-d][1,4]benzodiazepin-6-(7H)-one], the “Footshock 100% Blocking Dose Level” value in the test with mice [1] amounted to 20 mg. Also, the ED50 with mice [2] came to 50 mg/kg. The minimal effective dose in the test on Cats came to 5 mg/kg.
